The values below come from ChEMBL document CHEMBL1201862, “PubChem BioAssay data set” (2004).

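Five compound concentrations were applied to cells in 96-well plates for 48 hours; endpoints were derived by simple linear interpolation of the resulting dose-response curve. GI50: concentration for 50% inhibition of growth.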 Activity calls are given as the source filed them. Cut-off read from the data, not from the text of the source: active = GI50 up to about 1.1 µM and inactive = higher.

Among the test systems are A549; HCT-15; HOP-92; HT-29; K562; MDA-N; MOLT-4; NCI/ADR-RES; OVCAR-4; OVCAR-5; RPMI-8226; SK-MEL-28; SN12C; SNB-75; SR; T47D; TK-10; HL-60; RXF 393.
Holding throughout (assay): growth of human tumour cells (NCI), 48 h

Consider `COC(=O)C(COC(C)=O)NC(=O)/C=C/c1ccc(O)c(OC(C)=O)c1` (configuration not stated), for which the GI50 in the assay with A549 is > 100 µM (inactive); in the assay on HCT-15, 8.97 µM; in the assay on HOP-92 it was 83.4 µM (inactive); in the assay with HT-29, 78.2 µM (inactive); in the assay on K562, 44.6 µM (inactive); with MDA-N, > 100 µM (inactive). For the same compound, the GI50 in the assay with MOLT-4 is 13.6 µM (inactive); in the assay on NCI/ADR-RES, 75.3 µM (inactive); in the assay on OVCAR-4, 70.8 µM (inactive); with OVCAR-5, > 100 µM (inactive); in the assay with RPMI-8226, 29.6 µM (inactive); with SK-MEL-28 it was 66.2 µM (inactive). For the same compound, the GI50 with SN12C is > 100 µM (inactive); in the assay on SNB-75, > 100 µM (inactive); in the assay with SR, 5.81 µM (inactive); in the assay on T47D, 31.2 µM (inactive); in the assay on TK-10, 77.4 µM (inactive).
Regarding `Cc1c(NC(=S)NN)c(=O)n(-c2ccccc2)n1C`, the GI50 in the assay with A549 is > 100 µM (inactive); in the assay with HCT-15, more than 100 µM; in the assay on HL-60, > 100 µM (inactive); in the assay with HT-29 it was > 100 µM (inactive); with K562 it was > 100 µM (inactive); in the assay with MDA-N, > 100 µM (inactive). Further, the GI50 in the assay with MOLT-4, in the assay with NCI/ADR-RES, in the assay on OVCAR-4, in the assay on OVCAR-5, in the assay with RPMI-8226 and in the assay on RXF 393 was > 100 µM (inactive) in each case. For the same compound, the GI50 in the assay on SK-MEL-28 is > 100 µM (inactive); in the assay on SN12C, > 100 µM (inactive); with SNB-75 it was 20 µM (inactive); with SR, > 100 µM (inactive); in the assay with T47D, > 100 µM (inactive); in the assay on TK-10 it was > 100 µM (inactive).
Turning to `Cc1ccc(S(=O)(=O)NC(=O)Nc2ccc(C(=O)O)cc2)cc1`, the GI50 is > 100 µM (inactive) in the assay on A549; more than 100 µM in the assay with HCT-15; > 100 µM (inactive) in the assay with HL-60; > 100 µM (inactive) in the assay on HOP-92; > 100 µM (inactive) with HT-29; > 100 µM (inactive) with K562. Further, the GI50 in the assay on MDA-N, with MOLT-4, with NCI/ADR-RES, in the assay on OVCAR-4, with OVCAR-5 and in the assay on RPMI-8226 was > 100 µM (inactive) in each case. Further, the GI50 with RXF 393, in the assay on SK-MEL-28, with SN12C, with SNB-75, in the assay with T47D and in the assay on TK-10 was > 100 µM (inactive) throughout.
`Cc1ccc(F)cc1NC(=O)O/N=C(\Cl)C(C)C`: the GI50 in the assay on A549 was 18.9 µM (inactive); in the assay with HCT-15, 1.82 µM; in the assay on HL-60, 2.32 µM (inactive); in the assay on HOP-92, 2.58 µM (inactive); in the assay with HT-29, 14.6 µM (inactive); with K562, 1.97 µM (inactive). Moreover, the GI50 with MDA-N is 5.62 µM (inactive); in the assay with MOLT-4 it was 1.6 µM (inactive); with NCI/ADR-RES, 10.6 µM (inactive); in the assay on OVCAR-4, 16 µM (inactive); in the assay with OVCAR-5 it was 15.4 µM (inactive); with RPMI-8226, 2.17 µM (inactive). The GI50 was 3.05 µM (inactive) with RXF 393; 15.8 µM (inactive) in the assay on SK-MEL-28; 6.11 µM (inactive) in the assay on SN12C; 14.8 µM (inactive) in the assay on SNB-75; 4.73 µM (inactive) in the assay on T47D; 3.71 µM (inactive) in the assay on TK-10.
For the compound `O=c1[nH]c(Nc2ccc(Br)c(C(F)(F)F)c2)nc2[nH]cnc12`, the GI50 in the assay on A549 is 72.1 µM (inactive); in the assay with HCT-15, 76 µM; in the assay on HL-60, 26 µM (inactive); in the assay on HOP-92, 26.4 µM (inactive); in the assay on HT-29 it was 27.6 µM (inactive); in the assay on MDA-N, 34.4 µM (inactive). Also, the GI50 in the assay on MOLT-4 is 32 µM (inactive); in the assay on NCI/ADR-RES it was > 100 µM (inactive); with OVCAR-4, 47.1 µM (inactive); in the assay on OVCAR-5 it was 32.3 µM (inactive); with RPMI-8226 it was 47.3 µM (inactive); in the assay on SK-MEL-28, 36.6 µM (inactive). Besides, the GI50 in the assay on SN12C was 43.3 µM (inactive); with SNB-75, 25.6 µM (inactive); in the assay on SR it was 37.1 µM (inactive); in the assay on T47D it was 32.7 µM (inactive); with TK-10, 83.9 µM (inactive).
In the case of `CCC1(N)C(=O)OCc2c1cc1n(c2=O)Cc2cc3ccccc3nc2-1` (configuration not stated), the GI50 is 6.58 µM (inactive) in the assay with A549; 32.7 µM with HCT-15; 1.74 µM (inactive) with HL-60; 35.4 µM (inactive) with HOP-92; 15 µM (inactive) in the assay with HT-29; 18.9 µM (inactive) in the assay with K562. For the same compound, the GI50 in the assay on MDA-N is 17.7 µM (inactive); in the assay on MOLT-4 it was 0.871 µM (active); with NCI/ADR-RES, 5.02 µM (inactive); in the assay on OVCAR-4, 50 µM (inactive); in the assay on OVCAR-5, 44.5 µM (inactive); in the assay with RPMI-8226 it was 32.7 µM (inactive). Further, the GI50 is 13.4 µM (inactive) in the assay on RXF 393; > 93.1 µM (inactive) with SK-MEL-28; 3.99 µM (inactive) in the assay with SN12C; 8.36 µM (inactive) with SNB-75; 2.35 µM (inactive) with T47D; > 74.3 µM (inactive) in the assay on TK-10.
With `N#Cc1nc(CCCN2C(=O)c3ccccc3C2=O)oc1N`, the GI50 with A549 was > 100 µM (inactive); in the assay on HCT-15, more than 100 µM; with HT-29, > 100 µM (inactive); in the assay with K562 it was > 100 µM (inactive); with MDA-N, > 100 µM (inactive); in the assay with MOLT-4, > 100 µM (inactive). Moreover, the GI50 with NCI/ADR-RES, with OVCAR-4, in the assay on OVCAR-5, in the assay on RPMI-8226, with RXF 393 and with SK-MEL-28 was > 100 µM (inactive) throughout. Further, the GI50 with SN12C, in the assay with SR, in the assay on T47D and in the assay on TK-10 was > 100 µM (inactive) each time.
As to `C/C(=N\N=C(/S)N(C)C)c1cccnn1`, the GI50 was 0.832 µM (active) in the assay with A549; 0.468 µM in the assay on HCT-15; 0.365 µM (active) in the assay on HL-60; 0.569 µM (active) with HT-29; 0.794 µM (active) in the assay on K562; 0.752 µM (active) in the assay on MDA-N. In addition, the GI50 was 0.188 µM (active) with MOLT-4; 0.521 µM (active) in the assay on NCI/ADR-RES; 0.608 µM (active) in the assay on OVCAR-4; 1.06 µM (active) with OVCAR-5; 0.466 µM (active) in the assay on RPMI-8226; 0.488 µM (active) in the assay with RXF 393. Besides, the GI50 with SK-MEL-28 was 1.29 µM (inactive); in the assay with SN12C, 1.1 µM (active); with SNB-75, 2.03 µM (inactive); in the assay on SR it was 0.293 µM (active); in the assay with T47D it was 0.916 µM (active); in the assay with TK-10 it was 4.05 µM (inactive).
Take `Cc1ccc(/C=C2/N/C(=N\N=C/c3ccccc3)NC2=O)cc1`: the GI50 in the assay with A549 was 44.2 µM (inactive); in the assay with HCT-15 it was 30.9 µM; in the assay on HT-29, 46.3 µM (inactive); in the assay with K562, 34.3 µM (inactive); in the assay on MDA-N, 28.2 µM (inactive); in the assay with MOLT-4 it was 21.9 µM (inactive). Besides, the GI50 was 33.3 µM (inactive) in the assay on NCI/ADR-RES; 14.8 µM (inactive) in the assay on OVCAR-4; > 100 µM (inactive) in the assay on OVCAR-5; 16.2 µM (inactive) in the assay on RPMI-8226; 26.5 µM (inactive) with RXF 393; 36.4 µM (inactive) in the assay on SK-MEL-28. For the same compound, the GI50 is 45.7 µM (inactive) in the assay on SN12C; 31.3 µM (inactive) with SNB-75; 30.6 µM (inactive) with SR; 28.7 µM (inactive) in the assay on T47D; 32.2 µM (inactive) in the assay with TK-10.
As to `COCCNc1cncc(C(N)=O)c1`, the GI50 was > 100 µM (inactive) with A549; more than 100 µM with HCT-15; > 100 µM (inactive) in the assay on HL-60; > 100 µM (inactive) in the assay with HT-29; > 100 µM (inactive) with K562; > 100 µM (inactive) with MDA-N. The GI50 in the assay with MOLT-4, in the assay with NCI/ADR-RES, with OVCAR-4, in the assay with OVCAR-5, with SK-MEL-28 and in the assay with SN12C was > 100 µM (inactive) throughout. Besides, the GI50 in the assay with SNB-75 was 87.9 µM (inactive); in the assay with SR it was > 100 µM (inactive); in the assay on T47D it was 65.6 µM (inactive); in the assay on TK-10, > 100 µM (inactive).
Turning to `CC(C)(C)NC(=O)CCC1C(C(=O)NC(C)(C)C)C2(Cl)C(Cl)=C(Cl)C1(Cl)C2(Cl)Cl` (configuration not stated), the GI50 with A549 was > 100 µM (inactive); in the assay on HCT-15, more than 100 µM; in the assay on HL-60, > 100 µM (inactive); in the assay with HT-29, > 100 µM (inactive); in the assay on K562, > 100 µM (inactive); in the assay with MDA-N, > 100 µM (inactive). The GI50 with MOLT-4, in the assay on NCI/ADR-RES, with OVCAR-4, in the assay on OVCAR-5, with RPMI-8226 and with RXF 393 was > 100 µM (inactive) in each case. The GI50 with SK-MEL-28, with SN12C, in the assay with SNB-75, in the assay with SR, in the assay on T47D and in the assay with TK-10 was > 100 µM (inactive) each time.
With `Clc1ccc(-c2nc(-c3ccc(Cl)cc3)[s+]s2)cc1`, the GI50 is 39.9 µM (inactive) in the assay with A549; 33.3 µM with HCT-15; 48.1 µM (inactive) in the assay with HT-29; 24.3 µM (inactive) with K562; > 100 µM (inactive) with MDA-N; 26.6 µM (inactive) in the assay on MOLT-4. The GI50 with NCI/ADR-RES was 39.6 µM (inactive); in the assay with OVCAR-4, 27.7 µM (inactive); in the assay with OVCAR-5, > 100 µM (inactive); with RPMI-8226, 32.6 µM (inactive); with RXF 393 it was 84.7 µM (inactive); with SK-MEL-28, 59.7 µM (inactive). Also, the GI50 was 96.4 µM (inactive) with SN12C, 28.4 µM (inactive) in the assay with SR, > 100 µM (inactive) with T47D and 24 µM (inactive) in the assay with TK-10.
